Test results reported in PMC3706402, “Identification and Expression of the CCAP Receptor in the Chagas’ Disease Vector, Rhodnius prolixus, and Its Involvement in Cardiac Control” (PLoS ONE, 2013).
“Also recorded” adds a separate entry of the source. Bridge positions count the residues as written; N and C are the ends. Ends that are not written are not given here.

Tests used:
[1] = test system: heartbeat frequency in some insects; details: 34 (so in the source); cited from earlier work
Description: (§1) Also, these peptides are functionally inter-related. […] [33]. In M. sexta, AKH mobilize lipids from the fat body during flight or locomotion when heartbeat frequency also increases.

RhoprCCAPR [2] = assay: Functional receptor expression (aequorin bioluminescence, calcium mobilization) assay in CHO-WTA11 cells; type: cell-based, Rhodnius prolixus; details: for Activation of RhoprCCAPR (in words): CHO-WTA11 cells expressing RhoprCCAPR, bioluminescent response
Procedure: The coding region of RhoprCCAPR (1,128 bp) (RhoprCCAPR) was amplified from unfed 5th instar CNS cDNA with gene specific primers (Table 1C) using a Q5 High fidelity DNA polymerase (New England Biolabs, Pickering, ON). At the 5′ end before the ATG initiation codon, the Kozak translation initiation sequence ([…]) was introduced since this is required for optimal translation by eukaryotic ribosomes (Table 1C) [26]–[28]. The PCR product was run on a 0.8% agarose gel for 40 mins (160V) and the correct size of band was excised and purified (Promega, Madison, WI, USA). This was then subcloned into the pGEM T easy vector (Promega, Madison, WI) to verify its sequence. The insert with the Kozak sequence was excised using restriction enzyme (NotI) and subcloned into the expression vector, pcDNA™3.1(+) (Invitrogen, Carlsbad, CA) to express in Chinese hamster ovary (CHO-K1) WTA11, mammalian cells (Euroscreen S. A., Belgium; provided by Prof. Dr. M. Parmentier and Dr. M. Detheux; Brussels, Belgium).
RhoprCCAPR was transiently expressed in CHO-WTA11 cells that stably express promiscuous Gα16 and apoaequorin. This cell line has been used extensively for insect GPCR functional assays. The transfection was performed using X-treme HP DNA transfection reagent (Roche Applied Science, Indianapolis, IN) with the ratio of 3 (transfection reagent) to 1 (RhoprCCAPR/pcDNA™3.1(+) or empty pcDNA™3.1(+) vector) according to the manufacture’s protocol (Roche Applied Science, Indianapolis, IN). Cells were grown in the complete Dulbecco’s Modified Eagle Medium Nutrient Mixture F12-Ham (DMEM/F12, 10% fetal bovine serum, FBA, 100 IU/ml penicillin/streptomycin (Invitrogen, Carlsbad, CA)) in the 5% CO2 37°C incubator. After 48 hours, transfected cells were incubated with 5 µM Coelentarazine for 4 hours (Invitrogen, Carlsbad, CA) at room temperature in the dark. Interaction between ligand and the cloned RhoprCCAPR leads to a bioluminescent response that is mediated by the IP3/Ca^2+ signaling pathway. The luminescence assay was performed on opaque 96-well microplates (Corning, Lowell, MA). 50 µl of cells were introduced into each well of the 96-well plate that contained either controls or different concentration of peptides (RhoprCCAP, RhoprCorazonin, RhoprAKH and GNDNFMRFa) (Table 2) and the changes of luminescence were recorded for 20 sec. Wells only containing DMEM/0.1% BSA medium served as a negative control, while wells containing 50nM ATP served as a positive control. All luminescence values were corrected for background values from wells containing only DMEM/BSA medium and all values were calculated as maximum percentage difference. The response for each ligand concentration in replica wells and from at least three replica plates was averaged for analysis. GraphPad prism 5 (version 5.03) was used to analyze and generate the data.

heart of R. prolixus = details: cited from earlier work
CCAP receptor (CG6111) = details: read-out: EC50, D. melanogaster CCAP receptor (CG6111); cited from earlier work
Description: (§2) The improved sensitivity of this cell line over CHO-K cells is due to presence of the promiscuous Gα proteins.

CCAPR1 = details: read-out: EC50, T. castaneum CCAPR1; cited from earlier work
Description: as §2

CCAPR2 = details: read-out: EC50, T. castaneum CCAPR2; cited from earlier work
Description: as §2

CCAP receptor = details: read-out: EC50, A. gambiae CCAP receptor; cited from earlier work
Description: as §2

corpora cardiaca = details: 33 (so in the source); cited from earlier work
Description: as §1

[3] = test system: dorsal vessel of R. prolixus; assay: In vitro heartbeat (dorsal vessel preparation, impedance converter); design: species or system Rhodnius prolixus
Procedure: Adult R. prolixus were anesthetized with CO2 for 10 sec and 1 µl of 2 µg of dsCCAPR was injected into the thorax using a 5 µl Hamilton syringe to knock down RhoprCCAPR transcript levels. As a control, groups of R. prolixus were injected with either 1 µl of dsARG or had no injection. R. prolixus were left for 1 hour at room temperature to recover and then placed into an incubator at 28°C on a 16 h:8 h light/dark cycle.
In vitro heartbeat was monitored as described in Lee and Lange (2011) with minor modifications. The ventral cuticle, digestive and reproductive systems were dissected and removed under RNase free saline. The dorsal vessel and dorsal diaphragm remained attached to the dorsal cuticle. Then, the dorsal cuticle was placed onto a Sylgard-coated dissecting dish and covered with 100 µL of saline. Electrodes attached to an impedance converter (UFI model 2991, Morro Bay, CA, USA) were placed between the fifth and sixth abdominal segments on either side of the dorsal vessel anterior to the alary. The preparation was stabilized in 100 µL of saline for 10 min at room temperature, and then 50 µL of 10^−9M CCAP was exchanged for 50 µL of saline. Heartbeat frequency was measured from the traces observed on a Linear Flat-bed single channel chart recorder. The preparation was washed with saline for 5 mins post application of CCAP. Heartbeat frequency was determined for 1 min before and after the application of 10^−9M CCAP. The response to 10^−9M CCAP was quantified by measuring the increase in frequency compared to saline, which was then expressed as a percentage of the maximum change in frequency for each preparation. Pools of tissues including dorsal vessel/fat body/trachea were collected and the percentage of knockdown was measured by qPCR as indicated above.

[4] = test system: midgut α-amylase and protease activity; details: cited from earlier work
Description: Crustacean cardioactive peptide (CCAP) is a cyclic nonapeptide that is conserved in arthropods. CCAP was first isolated as a cardioaccelerator from the pericardial organs of the shore crab, Carcinus maenas, [8]. Later, it was biochemically isolated from the nervous system of insects, [10]. The important functions of CCAP in insects have been well documented. […] The CCAP may act in a paracrine manner, released from CCAP-containing midgut endocrine cells, [44].

[5] = test system: heart rate in Manduca sexta; details: cited from earlier work
Description: (§3) Crustacean cardioactive peptide (CCAP) is a cyclic nonapeptide that is conserved in arthropods. CCAP was first isolated as a cardioaccelerator from the pericardial organs of the shore crab, Carcinus maenas, [8]. Later, it was biochemically isolated from the nervous system of insects, [10]. The important functions of CCAP in insects have been well documented.

[6] = test system: oviduct of Locusta migratoria; details: cited from earlier work
Description: as §3

[7] = test system: heart rate in Drosophila melanogaster; details: cited from earlier work
Description: as §3

RhoprCCAPR [8] = assay: Calcium mobilization assay with RhoprCCAPR expressed in CHO-K1 cells; type: cell-based, Rhodnius prolixus; details: without promiscuous Gα, read-out: EC50 using CHO-K1 cells
Procedure: To determine the endogenous ligand for the isolated putative RhoprCCAPR in R. prolixus, we used a calcium mobilization assay which expresses the RhoprCCAPR clone in CHO-K1 cells. […] The receptor was not activated by other peptides that were tested, including RhoprAKH, RhoprCorazonin and an extended RhoprFMRFa, GNDNFMRFa (Figure 5A, 5B, Table 2). […] Thus, our control data illustrate that the functional receptor assay system is only activated in cells that are transfected with RhoprCCAPR and not by any endogenous receptors in these CHO cells.

hindgut of R. prolixus = test system: hindgut of R. prolixus; design: method as in earlier work; details: dose-dependent; ref 31 (so in the source); cited from earlier work
[9] = CHO-WTA11 cells stably expressing Gα16 and apoaequorin, luminescence recorded 20 sec, averaged from at least three replica plates

## pQLTFSTDW-NH2 [RhoprAKH, adipokinetic hormone, pQLTFSTDW-NH2]
[1]
  Effect on heartbeat frequency in some insects: increase heartbeat frequency
RhoprCCAPR [2]
  Activation of RhoprCCAPR (in words): not activated
RhoprCCAPR [2]; listed as AKH
  Activation of RhoprCCAPR (in words): neither AKH nor corazonin activate the RhoprCCAPR
RhoprCCAPR [2]; [9]
  EC50 (M) RhoprCCAPR: Not active

## GNDNFMRF-NH2 [ExtendedFMRFa]
RhoprCCAPR [2]; listed as GNDNFMRFa
  Activation of RhoprCCAPR (in words): not activated
RhoprCCAPR [2]; [9]
  EC50 (M) RhoprCCAPR: Not active

## pQTFQYSRGWTN-NH2 [Corazonin]
[1]
  Effect on heartbeat frequency in some insects: increase heartbeat frequency
RhoprCCAPR [2]
  Activation of RhoprCCAPR (in words): neither AKH nor corazonin activate the RhoprCCAPR
RhoprCCAPR [2]; listed as RhoprCorazonin
  Activation of RhoprCCAPR (in words): not activated
RhoprCCAPR [2]; [9]
  EC50 (M) RhoprCCAPR: Not active

## PFCNAFTGC-NH2 (disulfide 3-9 (inferred)) [RhoprCCAP]
Heart of R. prolixus; dose-dependent, ref 31 (so in the source)
  Effect on heartbeat frequency in the heart, R. prolixus (Discussion): increases heartbeat frequency and contraction in a dose-dependent manner
Heart of R. prolixus; in vitro, 5th instar
  Effect on heartbeat frequency, R. prolixus: increases heartbeat frequency in vitro; also recorded: increases the frequency of the heartbeat in R. prolixus in a reversible, dose-dependent manner
CCAP receptor (CG6111)
  EC50: 0.00054 µM
CCAPR1
  EC50: 0.624 µM
CCAPR2
  EC50: 0.022 µM
CCAP receptor
  EC50: 0.001 µM
[1]
  Effect on heartbeat frequency in some insects: increase heartbeat frequency
Corpora cardiaca
  Effect on AKH release: influences AKH release
[3]; 10^−9 M CCAP, RhoprCCAPR knocked down by dsCCAPR, in vitro
  Effect of CCAP on heartbeat after RhoprCCAPR knockdown (in words): loss of function; also recorded: unresponsive; also recorded: eliminates the CCAP-induced increase in vitro; also recorded: cardioacceleratory effect is abolished
[3]; dsARG-treated bugs, saline baseline 10.4±2.9, paired t test p = 0.0376, vs dsCCAPR unpaired p = 0.0318, mean ± SEM, n = 5 (Figure 6)
  In vitro heartbeat frequency in the presence of 10^−9 M CCAP, dsARG treated bugs: 15.6±3.9 beats/min
[3]; dsCCAPR-treated bugs, saline baseline 5.4±3.0, paired t test p = 0.1688, vs dsARG unpaired p = 0.0318, mean ± SEM, n = 5 (Figure 6)
  In vitro heartbeat frequency in the presence of 10^−9 M CCAP, dsCCAPR treated bugs: 4.6±3.3 beats/min
[4]
  Effect on enzyme secretion, P. americana: regulates enzyme secretion
[4]; isolated midgut
  Effect on α-amylase and protease activity: increases α-amylase and protease activity
[5]
  Effect on heart rate, M. sexta: triggers increasing heart rate
[6]
  Effect on oviduct contractions: modulates oviduct contractions
[7]
  Effect on heart rate, D. melanogaster: triggers increasing heart rate
RhoprCCAPR [8]
  EC50: 0.341 ± 0.0088 µM
Hindgut of R. prolixus
  Effect on hindgut contraction: increases heartbeat frequency and contraction in a dose-dependent manner
RhoprCCAPR [2]; [9]
  EC50: 0.0122 µM
